Patent publication US20120172369A1 (priority 2009, published 2012)
Read-outs that look alike come from different tables or passages of the source.

Target: T1, human DGAT1 enzyme (Homo sapiens, UniProt O75907)
T1 construct: made in house; host or cells: Sf9 insect cells (microsomal membranes)
T1 sequence (O75907 1-488): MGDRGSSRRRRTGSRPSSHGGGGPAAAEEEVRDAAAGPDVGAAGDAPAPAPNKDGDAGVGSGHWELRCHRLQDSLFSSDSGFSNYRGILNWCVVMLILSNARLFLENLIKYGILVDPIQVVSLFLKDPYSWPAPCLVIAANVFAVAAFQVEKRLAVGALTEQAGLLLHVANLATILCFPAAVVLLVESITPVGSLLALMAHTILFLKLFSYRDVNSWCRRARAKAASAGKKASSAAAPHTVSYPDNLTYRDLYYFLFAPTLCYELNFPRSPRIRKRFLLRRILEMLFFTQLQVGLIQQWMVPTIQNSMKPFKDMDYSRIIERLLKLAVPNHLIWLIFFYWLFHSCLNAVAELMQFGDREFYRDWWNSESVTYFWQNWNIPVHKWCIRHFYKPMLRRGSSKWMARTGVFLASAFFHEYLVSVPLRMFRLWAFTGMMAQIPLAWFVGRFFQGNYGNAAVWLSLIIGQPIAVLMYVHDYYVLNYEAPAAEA
Assay: in vitro DGAT1 inhibition assay (microsomes, [14C]-palmitoyl-CoA, SPA beads)
Format: biochemical
Method: The in vitro assay to identify DGAT1 inhibitors uses human DGAT1 enzyme expressed in Sf9 insect cells prepared as microsomes. The reaction was initiated by the addition of the combined substrates 1,2-dioleoyl-sn-glycerol and [^14C]-palmitoyl-Co A and incubated with test compounds and microsomal membranes for 2 hours at room temperature. The assay was stopped by adding 0.5 mg wheat germ agglutinin beads in assay buffer with 1% Brij-35 and 1% 3-cholamidopropyldimethyl-ammonio-1-propane sulfonate. Plates were sealed with TopSeal and incubated for 18 hours to allow the radioactive triglyceride product to come into proximity with the bead. Plates were read on a TopCount instrument.
Percent inhibition was calculated as the percent of (test compound inhibition minus non-specific binding) relative to (total binding minus non-specific binding). IC50 values were determined by curve fitting the data to a Sigmoidal dose-response in GraphPad Prism utilizing the following equation:
Y=A+(B−A)/(1+10̂((Log IC50−X))),
where A and B are the bottom and top of the curve (highest and lowest inhibition), respectively, and X is the logarithm of concentration.

[1] = human DGAT1 expressed in Sf9 insect cells, microsomes, 2 hours at room temperature, read-out: IC50

## COc1ccccc1-c1ccc2oc(C(=O)Nc3ccc(N4CCN(C(=O)Nc5ccccc5F)CC4)nc3)c(C)c2c1 [Example 69, N-(2-fluorophenyl)4-(5-(5-(2-methoxyphenyl)-3-methylbenzofuran-2-carboxamido)pyridin-2-yl)piperazine-1-carboxamide]
[1]
  IC50: 204 nM

## Cc1ccc2c(C)c(C(=O)Nc3ccc(N4CCC(OCc5cccc(C(=O)O)c5)CC4)nc3)oc2c1C [Example 87, 3-((1-(5-(3,6,7-trimethylbenzofuran-2-carboxamido)pyridin-2-yl)piperidin-4-yloxy)methyl)benzoic acid]
[1]
  IC50: 22 nM

## CCOC(=O)c1ccccc1NC(=O)N1CCN(c2ccc(NC(=O)c3sc4ccc(-c5ccccc5)cc4c3C)cn2)CC1 [Example 50, ethyl 2-(4-(5-(3-methyl-5-phenylbenzo[b]thiophene-2-carboxamido)pyridin-2-yl)piperazine-1-carboxamido)benzoate]
[1]
  IC50: 2330 nM

## Cc1c(C(=O)Nc2ccc(N3CCN(C(=O)C(O)C(F)(F)F)CC3)nc2)oc2ccccc12 (stereo not shown) [Example 3, 3-methyl-N-(6-(4-(3,3,3-trifluoro-2-hydroxypropanoyl)piperazin-1-yl)pyridin-3-yl)benzofuran-2-carboxamide]
[1]
  IC50: 589 nM

## Cc1c(C(=O)Nc2ccc(N3CCN(C(=O)Nc4ccccc4F)CC3)nc2)oc2c(F)cccc12 [Example 9, 4-(5-(7-fluoro-3-methylbenzofuran-2-carboxamido)pyridin-2-yl)-N-(2-fluorophenyl)piperazine-1-carboxamide]
[1]
  IC50: 49 nM

## Cc1c(C(=O)Nc2ccc(N3CC[C@H](COc4ccc(C(=O)O)cc4)C3)nc2)oc2ccc(-c3ccccc3)cc12 [Example 81, (S)-4-((1-(5-(3-methyl-5-phenylbenzofuran-2-carboxamido)pyridin-2-yl)pyrrolidin-3-yl)methoxy)benzoic acid]
[1]
  IC50: 1060 nM

## Cc1c(C(=O)Nc2ccc(N3CCC(COc4cccc(C(=O)O)c4)CC3)nc2)oc2ccc(-c3cccc(F)c3)cc12 [Example 33, 3-((1-(5-(5-(3-fluorophenyl)-3-methylbenzofuran-2-carboxamido)pyridin-2-yl)piperidin-4-yl)methoxy)benzoic acid]
[1]
  IC50: 93 nM

## Cc1c(C(=O)Nc2ccc(N3CCN(C(=O)Nc4ccccc4F)CC3)nc2)oc2ccc(-c3ccccc3F)cc12 [Example 20, N-(2-fluorophenyl)-4-(5-(5-(2-fluorophenyl)-3-methylbenzofuran-2-carboxamido)pyridin-2-yl)piperazine-1-carboxamide]
[1]
  IC50: 115 nM

## Cc1c(C(=O)Nc2ccc(N3CCN(C(=O)Nc4ccccc4F)CC3)nc2)oc2ccc(-c3ncco3)cc12 [Example 82, N-(2-fluorophenyl)-4-(5-(3-methyl-5-(oxazol-2-yl)benzofuran-2-carboxamido)pyridin-2-yl)piperazine-1-carboxamide]
[1]
  IC50: 104 nM

## Cc1c(C(=O)Nc2ccc(-c3ccc(OCC(C)(C)C(=O)O)nc3)cc2)oc2ccc(-c3ccccc3)cc12 [Example 58, 2,2-dim ethyl-3-(5-(4-(3-methyl-5-phenylbenzofuran-2-carboxamido)phenyl)pyridin-2-yloxy)propanoic acid]
[1]
  IC50: 13 nM

## Cc1c(C(=O)Nc2ccc(N3CCN(C(=O)Nc4ccccc4F)CC3)nc2)oc2ccc(-c3ccc(F)cc3)cc12 [Example 40, N-(2-fluorophenyl)-4-(5-(5-(4-fluorophenyl)-3-methylbenzofuran-2-carboxamido)pyridin-2-yl)piperazine-1-carboxamide]
[1]
  IC50: 100 nM

## Cc1c(C(=O)Nc2ccc(N3CCN(C(=O)Nc4ccccc4C(=O)O)CC3)nc2)oc2ccc(-c3ccccc3F)cc12 [Example 24, 2-(4-(5-(5-(2-fluorophenyl)-3-methylbenzofuran-2-carboxamido)pyridin-2-yl)piperazine-1-carboxamido)benzoic acid]
[1]
  IC50: 59 nM

## COc1ccccc1-c1ccc2oc(C(=O)Nc3ccc(N4CCC(OCc5cccc(C(=O)O)c5)CC4)nc3)c(C)c2c1 [Example 73, 3-((1-(5-(5-(2-methoxyphenyl)-3-methylbenzofuran-2-carboxamido)pyridin-2-yl)piperidin-4-yloxy)methyl)benzoic acid]
[1]
  IC50: 108 nM

## Cc1c(C(=O)Nc2ccc(-c3ccc(OCC(C)(C)C(=O)O)nc3)nc2)oc2ccc(-c3ccccc3)cc12 [Example 59, 2,2-dimethyl-3-(5-(3-methyl-5-phenylbenzofuran-2-carboxamido)-2,3′-bipyridin-6′-yloxy)propanoic acid]
[1]
  IC50: 9 nM

## CCOC(=O)c1ccccc1NC(=O)N1CCN(c2ccc(NC(=O)c3oc4ccc(-c5ccccc5)cc4c3C)cn2)CC1 [Example 14, ethyl 2-(4-(5-(3-methyl-5-phenylbenzofuran-2-carboxamido)pyridin-2-yl)piperazine-1-carboxamido)benzoate]
[1]
  IC50: 361 nM

## COC(=O)c1cccc(COC2CCN(c3ccc(NC(=O)c4oc5ccc(-c6ccc(F)cc6)cc5c4C)cn3)CC2)c1 [Example 35, methyl 3-((1-(5-(5-(4-fluorophenyl)-3-methylbenzofuran-2-carboxamido)pyridin-2-yl)piperidin-4-yloxy)methyl)benzoate]
[1]
  IC50: 38 nM

## Cc1c(C(=O)Nc2ccc(N3CCN(C(=O)Nc4ccccc4F)CC3)nc2)oc2c(C)cccc12 [Example 8, 4-(5-(3,7-dimethylbenzofuran-2-carboxamido)pyridin-2-yl)-N-(2-fluorophenyl)piperazine-1-carboxamide]
  IC50: 48 nM

## CCOC(=O)c1ccccc1NC(=O)N1CCN(c2ccc(NC(=O)c3oc4ccc(-c5ccc(OC)cc5)cc4c3C)cn2)CC1 [Example 65, ethyl 2-(4-(5-(5-(4-methoxyphenyl)-3-methylbenzofuran-2-carboxamido)pyridin-2-yl)piperazine-1-carboxamido)benzoate]
[1]
  IC50: 454 nM

## Cc1c(C(=O)Nc2ccc(N3CCC(OCc4cccc(C(=O)O)c4)CC3)nc2)oc2ccc(-c3ccc(F)cc3)cc12 [Example 37, 3-((1-(5-(5-(4-fluorophenyl)-3-methylbenzofuran-2-carboxamido)pyridin-2-yl)piperidin-4-yloxy)methyl)benzoic acid]
[1]
  IC50: 106 nM

## Cc1c(C(=O)Nc2ccc(N3CCN(C(=O)Nc4ccccc4F)CC3)nc2)sc2ccc(-c3cccc(F)c3)cc12 [Example 54, N-(2-fluorophenyl)-4-(5-(5-(3-fluorophenyl)-3-methylbenzo[b]thiophene-2-carboxamido)pyridin-2-yl)piperazine-1-carboxamide]
[1]
  IC50: 220 nM

## Cc1c(C(=O)Nc2ccc(N3CCN(C(=O)Nc4ccccc4F)CC3)nc2)oc2cc(-c3ccccc3)ccc12 [Example 13, N-(2-fluorophenyl)-4-(5-(3-methyl-6-phenylbenzofuran-2-carboxamido)pyridin-2-yl)piperazine-1-carboxamide]
[1]
  IC50: 282 nM

## Cc1c(C(=O)Nc2ccc(N3CCN(C(=O)Cc4c(F)cccc4F)CC3)nc2)oc2ccccc12 [Example 4, N-(6-(4-(2-(2,6-difluorophenyl)acetyl)piperazin-1-yl)pyridin-3-yl)-3-methylbenzofuran-2-carboxamide]
[1]
  IC50: 46 nM

## COC(=O)c1cccc(COC2CCN(c3ccc(NC(=O)c4oc5ccc(-c6ccccc6OC)cc5c4C)cn3)CC2)c1 [Example 72, methyl 3-((1-(5-(5-(2-methoxyphenyl)-3-methylbenzofuran-2-carboxamido)pyridin-2-yl)piperidin-4-yloxy)methyl)benzoate]
[1]
  IC50: 13300 nM

## O=C(Nc1ccc(N2CCN(C(=O)Nc3ccccc3F)CC2)nc1)c1coc2ccccc12 [Example 11, 4-(5-(benzofuran-3-carboxamido)pyridin-2-yl)-N-(2-fluorophenyl)piperazine-1-carboxamide]
[1]
  IC50: 95 nM

## COc1ccccc1-c1ccc2oc(C(=O)Nc3ccc(N4CCN(C(=O)Nc5ccccc5C(=O)O)CC4)nc3)c(C)c2c1 [Example 70]
[1]
  IC50: 1090 nM
